Experimental data taken from patent US20240190880A1 (THE REGENTS OF THE UNIVERSITY OF MICHIGAN, priority 2021, published 2024).

Each compound was assayed against T1, ER (Homo sapiens, UniProt P03372) (assay: ER degradation activity, in-cell western blot analysis in T47D cells). Conditions: compounds 16 hours, Table A does not say whether T47D or MCF7, read-out: Potency (DC50).
T1 construct: host or cells: T47D and MCF7 human breast cancer cells
T1 sequence (P03372 1-595): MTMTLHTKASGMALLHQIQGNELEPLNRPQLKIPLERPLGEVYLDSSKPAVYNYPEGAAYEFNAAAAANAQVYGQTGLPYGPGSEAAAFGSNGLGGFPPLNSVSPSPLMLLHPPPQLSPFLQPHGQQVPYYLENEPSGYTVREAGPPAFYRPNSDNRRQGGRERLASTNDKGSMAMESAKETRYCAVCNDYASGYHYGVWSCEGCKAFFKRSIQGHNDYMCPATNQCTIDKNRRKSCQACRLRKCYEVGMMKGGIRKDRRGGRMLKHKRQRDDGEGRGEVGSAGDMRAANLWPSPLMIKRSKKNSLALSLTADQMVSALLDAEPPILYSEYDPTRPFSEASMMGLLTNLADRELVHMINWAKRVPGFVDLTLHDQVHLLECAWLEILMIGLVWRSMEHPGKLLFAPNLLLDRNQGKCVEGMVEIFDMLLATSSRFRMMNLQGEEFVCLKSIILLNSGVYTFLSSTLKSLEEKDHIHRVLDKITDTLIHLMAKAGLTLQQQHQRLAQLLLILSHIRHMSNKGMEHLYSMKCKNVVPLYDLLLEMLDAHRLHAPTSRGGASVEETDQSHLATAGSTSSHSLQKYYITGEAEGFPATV
Format: cell-based
How it was run: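 In-cell western, T47D; compounds 16 h, 0.5% DMSO final; anti-rabbit-680/anti-mouse-800 secondaries, 1 h RT, dark; read on CLX imager. ER % vs untreated/DMSO wells (100%).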
`C[C@@H]1Cc2cc(O)ccc2[C@@H](c2ccc(C(=O)N3CCC4(CCC(CN5Cc6cc7c(cc6C5)C(=O)N(C5CCC(=O)NC5=O)C7=O)CC4)CC3)cc2)N1CC(F)F` (stereo partly drawn) [E 454, 6-((3-(4-((1R,3R)-2-(2,2-difluoroethyl)-6-hydroxy-3-methyl-1,2,3,4-tetrahydroisoquinolin-1-yl)benzoyl)-3-azaspiro[5.5]undecan-9-yl)methyl)-2-(2,6-dioxopiperidin-3-yl)-6,7-dihydropyrrolo[3,4-f]isoindole-1,3(2H,5H)-dione] showed a DC50 of over 100 nM. Work on `C[C@@H]1Cc2cc(O)ccc2[C@@H](c2c(F)cc(OC3CC4(CCN(C(=O)CN5Cc6cc7c(cc6C5)C(=O)N(C5CCC(=O)NC5=O)C7=O)CC4)C3)cc2F)N1CC(F)F` (stereo partly drawn) [E 455, 6-(2-(2-(4-((1S,3R)-2-(2,2-difluoroethyl)-6-hydroxy-3-methyl-1,2,3,4-tetrahydroisoquinolin-1-yl)-3,5-difluorophenoxy)-7-azaspiro[3.5]nonan-7-yl)-2-oxoethyl)-2-(2,6-dioxopiperidin-3-yl)-6,7-dihydropyrrolo[3,4-f]isoindole-1,3(2H,5H)-dione] yielded a DC50 of 10 to 100 nM. In the case of `C[C@@H]1Cc2cc(O)ccc2[C@H](c2c(F)cc(OC3CC4(CCN(C(=O)CN5Cc6cc7c(cc6C5)C(=O)N(C5CCC(=O)NC5=O)C7=O)CC4)C3)cc2F)N1CC(F)F` (stereo partly drawn) [E 456, 6-(2-(2-(4-((1R,3R)-2-(2,2-difluoroethyl)-6-hydroxy-3-methyl-1,2,3,4-tetrahydroisoquinolin-1-yl)-3,5-difluorophenoxy)-7-azaspiro[3.5]nonan-7-yl)-2-oxoethyl)-2-(2,6-dioxopiperidin-3-yl)-6,7-dihydropyrrolo[3,4-f]isoindole-1,3(2H,5H)-dione], the DC50 is reported as over 100 nM. In the case of `C[C@@H]1Cc2cc(O)ccc2[C@@H](c2c(F)cc(C(=O)N3CC4(CCN(C(=O)CN5Cc6cc7c(cc6C5)C(=O)N(C5CCC(=O)NC5=O)C7=O)CC4)C3)cc2F)N1CC(F)F` (stereo partly drawn) [E 457, 6-(2-(2-(4-((1S,3R)-2-(2,2-difluoroethyl)-6-hydroxy-3-methyl-1,2,3,4-tetrahydroisoquinolin-1-yl)-3,5-difluorobenzoyl)-2,7-diazaspiro[3.5]nonan-7-yl)-2-oxoethyl)-2-(2,6-dioxopiperidin-3-yl)-6,7-dihydropyrrolo[3,4-f]isoindole-1,3(2H,5H)-dione], the DC50 is reported as 10 to 100 nM. `C[C@@H]1Cc2cc(O)ccc2[C@H](c2c(F)cc(C(=O)N3CC4(CCN(C(=O)CN5Cc6cc7c(cc6C5)C(=O)N(C5CCC(=O)NC5=O)C7=O)CC4)C3)cc2F)N1CC(F)F` (stereo partly drawn) [E 458, 6-(2-(2-(4-((1R,3R)-2-(2,2-difluoroethyl)-6-hydroxy-3-methyl-1,2,3,4-tetrahydroisoquinolin-1-yl)-3,5-difluorobenzoyl)-2,7-diazaspiro[3.5]nonan-7-yl)-2-oxoethyl)-2-(2,6-dioxopiperidin-3-yl)-6,7-dihydropyrrolo[3,4-f]isoindole-1,3(2H,5H)-dione] showed a DC50 of over 100 nM. `C[C@@H]1Cc2cc(O)ccc2[C@@H](c2ccc(C(=O)N3CC4(CCN(C(=O)CN5Cc6cc7c(cc6C5)C(=O)N(C5CCC(=O)NC5=O)C7=O)CC4)C3)cc2)N1CC(F)F` (stereo partly drawn) [E 459, 6-(2-(2-(4-((1R,3R)-2-(2,2-difluoroethyl)-6-hydroxy-3-methyl-1,2,3,4-tetrahydroisoquinolin-1-yl)benzoyl)-2,7-diazaspiro[3.5]nonan-7-yl)-2-oxoethyl)-2-(2,6-dioxopiperidin-3-yl)-6,7-dihydropyrrolo[3,4-f]isoindole-1,3(2H,5H)-dione] gave a DC50 of under 10 nM. Work on `C[C@@H]1Cc2cc(O)ccc2[C@H](c2ccc(C(=O)N3CC4(CCN(C(=O)CN5Cc6cc7c(cc6C5)C(=O)N(C5CCC(=O)NC5=O)C7=O)CC4)C3)cc2)N1CC(F)F` (stereo partly drawn) [E 460, 6-(2-(2-(4-((1S,3R)-2-(2,2-difluoroethyl)-6-hydroxy-3-methyl-1,2,3,4-tetrahydroisoquinolin-1-yl)benzoyl)-2,7-diazaspiro[3.5]nonan-7-yl)-2-oxoethyl)-2-(2,6-dioxopiperidin-3-yl)-6,7-dihydropyrrolo[3,4-f]isoindole-1,3(2H,5H)-dione] yielded a DC50 of 10 to 100 nM. For `COc1c2c(cc3c1CN(C1CCC(=O)NC1=O)C3=O)CN(CC(=O)N1CCC3(CC1)CCN(c1cc(F)c([C@@H]4c5ccc(O)cc5C[C@@H](C)N4CC(F)F)c(F)c1)CC3)C2` (stereo partly drawn) [E 461, 3-(6-(2-(9-(4-((1S,3R)-2-(2,2-difluoroethyl)-6-hydroxy-3-methyl-1,2,3,4-tetrahydroisoquinolin-1-yl)-3,5-difluorophenyl)-3,9-diazaspiro[5.5]undecan-3-yl)-2-oxoethyl)-4-methoxy-1-oxo-3,5,6,7-tetrahydropyrrolo[3,4-f]isoindol-2(1H)-yl)piperidine-2,6-dione], the DC50 was under 10 nM. Work on `C[C@@H]1Cc2cc(O)ccc2[C@@H](c2ccc(N3CCC4(CCN(C(=O)CN5Cc6cc7c(cc6C5)C(=O)N(C5CCC(=O)NC5=O)C7=O)CC4)CC3)cc2)N1c1ccc(F)cc1` (stereo partly drawn) [E 462, 2-(2,6-dioxopiperidin-3-yl)-6-(2-(9-(4-((1R,3R)-2-(4-fluorophenyl)-6-hydroxy-3-methyl-1,2,3,4-tetrahydroisoquinolin-1-yl)phenyl)-3,9-diazaspiro[5.5]undecan-3-yl)-2-oxoethyl)-6,7-dihydropyrrolo[3,4-f]isoindole-1,3(2H,5H)-dione] yielded a DC50 of 10 to 100 nM. Work on `C[C@@H]1Cc2cc(O)ccc2[C@@H](c2c(F)cc(N3CCC(C(=O)N4CCC(N5Cc6cc7c(cc6C5)C(=O)N(C5CCC(=O)NC5=O)C7=O)CC4)CC3)cc2F)N1CC(F)F` (stereo partly drawn) [E 463, 6-(1-(1-(4-((1S,3R)-2-(2,2-difluoroethyl)-6-hydroxy-3-methyl-1,2,3,4-tetrahydroisoquinolin-1-yl)-3,5-difluorophenyl)piperidine-4-carbonyl)piperidin-4-yl)-2-(2,6-dioxopiperidin-3-yl)-6,7-dihydropyrrolo[3,4-f]isoindole-1,3(2H,5H)-dione] yielded a DC50 of under 10 nM. Work on `C[C@@H]1Cc2cc(O)ccc2[C@@H](c2c(F)cc(C(=O)N3CC4(CCC(CN5Cc6cc7c(cc6C5)C(=O)N(C5CCC(=O)NC5=O)C7=O)CC4)C3)cc2F)N1CC(F)F` (stereo partly drawn) [E 464, 6-((2-(4-((1S,3R)-2-(2,2-difluoroethyl)-6-hydroxy-3-methyl-1,2,3,4-tetrahydroisoquinolin-1-yl)-3,5-difluorobenzoyl)-2-azaspiro[3.5]nonan-7-yl)methyl)-2-(2,6-dioxopiperidin-3-yl)-6,7-dihydropyrrolo[3,4-f]isoindole-1,3(2H,5H)-dione] yielded a DC50 of over 100 nM. Work on `C[C@@H]1Cc2cc(O)ccc2[C@@H](c2c(F)cc(C(=O)N3CCC4(CC3)CC(CN3Cc5cc6c(cc5C3)C(=O)N(C3CCC(=O)NC3=O)C6=O)C4)cc2F)N1CC(F)F` (stereo partly drawn) [E 465, 6-((7-(4-((1S,3R)-2-(2,2-difluoroethyl)-6-hydroxy-3-methyl-1,2,3,4-tetrahydroisoquinolin-1-yl)-3,5-difluorobenzoyl)-7-azaspiro[3.5]nonan-2-yl)methyl)-2-(2,6-dioxopiperidin-3-yl)-6,7-dihydropyrrolo[3,4-f]isoindole-1,3(2H,5H)-dione] yielded a DC50 of over 100 nM. `C[C@@H]1Cc2cc(O)ccc2[C@@H](c2c(F)cc(N3CCC(CN4CCC(N5Cc6cc7c(cc6C5)C(=O)N(C5CCC(=O)NC5=O)C7=O)CC4)CC3)cc2F)N1CC(F)F` (stereo partly drawn) [E 466, 6-(1-((1-(4-((1S,3R)-2-(2,2-difluoroethyl)-6-hydroxy-3-methyl-1,2,3,4-tetrahydroisoquinolin-1-yl)-3,5-difluorophenyl)piperidin-4-yl)methyl)piperidin-4-yl)-2-(2,6-dioxopiperidin-3-yl)-6,7-dihydropyrrolo[3,4-f]isoindole-1,3(2H,5H)-dione] showed a DC50 of over 100 nM. `C[C@@H]1Cc2c(ccc3[nH]ncc23)[C@@H](c2c(F)cc(N3CCC(C(=O)N4C5CCC4CC(N4Cc6cc7c(cc6C4)C(=O)N(C4CCC(=O)NC4=O)C7=O)C5)CC3)cc2F)N1CC(F)F` (stereo partly shown) [E 469] showed a DC50 of 10 to 100 nM. Compound `C[C@@H]1Cc2c([nH]c3ccccc23)[C@@H](c2cnc(N3CC4(CCC(CN5Cc6cc7c(cc6C5)C(=O)N(C5CCC(=O)NC5=O)C7=O)CC4)C3)nc2)N1CC(C)(C)F` (stereo partly drawn) [E 471, 2-(2,6-dioxopiperidin-3-yl)-6-((2-(5-((1R,3R)-2-(2-fluoro-2-methylpropyl)-3-methyl-2,3,4,9-tetrahydro-1H-pyrido[3,4-b]indol-1-yl)pyrimidin-2-yl)-2-azaspiro[3.5]nonan-7-yl)methyl)-6,7-dihydropyrrolo[3,4-f]isoindole-1,3(2H,5H)-dione] has a DC50 of 10 to 100 nM. With `C[C@@H]1Cc2c([nH]c3ccccc23)[C@@H](c2cnc(N3CC4(CCC(CN5Cc6cc7c(cc6C5)C(=O)N(C5CCC(=O)NC5=O)C7=O)CC4)C3)nc2)N1CC(F)F` (stereo partly drawn) [E 472, 6-((2-(5-((1R,3R)-2-(2,2-difluoroethyl)-3-methyl-2,3,4,9-tetrahydro-1H-pyrido[3,4-b]indol-1-yl)pyrimidin-2-yl)-2-azaspiro[3.5]nonan-7-yl)methyl)-2-(2,6-dioxopiperidin-3-yl)-6,7-dihydropyrrolo[3,4-f]isoindole-1,3(2H,5H)-dione] the DC50 was 10 to 100 nM.
